Reference: ChEMBL document CHEMBL1201862, “PubChem BioAssay data set” (2004)
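Where inhibition never reached the appropriate level, the endpoint shown equals the highest concentration tested. Otherwise, values were interpolated linearly from a five-concentration, 48-hour dose response in 96-well plates. Abbreviation: GI50, concentration required for 50% inhibition of growth.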 Activity calls are given as the source filed them. Cut-off read from the data, not from the text of the source: active = GI50 up to about 1.1 µM and inactive = higher.

Legend:
Assay in all cases: NCI tumour cell line growth inhibition, 48 h
CAKI-1 = system: CAKI-1
CCRF-CEM = system: CCRF-CEM
COLO 205 = system: COLO 205
Hs-578T = system: Hs-578T
IGROV-1 = system: IGROV-1
K562 = system: K562
KM12 = system: KM12
LOX IMVI = system: LOX IMVI
M14 = system: M14
NCI-H460 = system: NCI-H460
OVCAR-4 = system: OVCAR-4
SF-539 = system: SF-539
SK-MEL-2 = system: SK-MEL-2
SK-MEL-5 = system: SK-MEL-5
SNB-19 = system: SNB-19
SW-620 = system: SW-620
TK-10 = system: TK-10
U-251 = system: U-251
UACC-62 = system: UACC-62

Structure (SMILES)	GI50 (CAKI-1)	GI50 (CCRF-CEM)	GI50 (COLO 205)	GI50 (Hs-578T)	GI50 (IGROV-1)	GI50 (K562)	GI50 (KM12)	GI50 (LOX IMVI)	GI50 (M14)	GI50 (NCI-H460)	GI50 (OVCAR-4)	GI50 (SF-539)	GI50 (SK-MEL-2)	GI50 (SK-MEL-5)	GI50 (SNB-19)	GI50 (SW-620)	GI50 (TK-10)	GI50 (U-251)	GI50 (UACC-62)
CCOC(=O)C1=C(C)NC(C)=C(C(=O)OCC)C1c1ccc(Cl)cc1	16.5 µM (inactive)	1.43 µM (inactive)	16.3 µM (inactive)	19.6 µM (inactive)	15.1 µM (inactive)	9.91 µM (inactive)	17.5 µM (inactive)	16.8 µM (inactive)	16.6 µM (inactive)	4.6 µM (inactive)	12.5 µM (inactive)	18.8 µM (inactive)	18.7 µM (inactive)	13.7 µM (inactive)	16.7 µM (inactive)	16.3 µM (inactive)	14.8 µM (inactive)	16.8 µM (inactive)	12.1 µM (inactive)
c1ccc2c(c1)CCN(C1=NCCO1)C2	> 10 µM (inactive)	> 10 µM (inactive)	> 10 µM (inactive)	> 10 µM (inactive)	> 10 µM (inactive)	> 10 µM (inactive)	> 10 µM (inactive)	> 10 µM (inactive)	> 10 µM (inactive)	> 10 µM (inactive)	> 10 µM (inactive)	> 10 µM (inactive)	> 10 µM (inactive)	> 10 µM (inactive)	> 10 µM (inactive)	> 10 µM (inactive)	> 10 µM (inactive)	> 10 µM (inactive)	> 10 µM (inactive)
COC(=O)C(Cc1c[nH]c2ccccc12)NC(=O)c1ccc(-c2ccc(Cl)cc2Cl)o1 (configuration not stated)	42.7 µM (inactive)	20.6 µM (inactive)	43.9 µM (inactive)	> 100 µM (inactive)	32.6 µM (inactive)	26 µM (inactive)	60 µM (inactive)	53 µM (inactive)	64 µM (inactive)	21.6 µM (inactive)	38.3 µM (inactive)	21.7 µM (inactive)	34.8 µM (inactive)		> 100 µM (inactive)	41.1 µM (inactive)	63.5 µM (inactive)	42.7 µM (inactive)	43.3 µM (inactive)
CC1C[C@]2(C)C(=O)Nc3ccccc3[C@@H]2Nc2ccccc21 (some centres not stated)	20.3 µM (inactive)	30.5 µM (inactive)	18.1 µM (inactive)	20 µM (inactive)	24.4 µM (inactive)	32.9 µM (inactive)	17.9 µM (inactive)	16.3 µM (inactive)	26.1 µM (inactive)	28.1 µM (inactive)	44.3 µM (inactive)	23.4 µM (inactive)	20.1 µM (inactive)	16.5 µM (inactive)	21.8 µM (inactive)	34.6 µM (inactive)	21.2 µM (inactive)		15.1 µM (inactive)
CNC(=O)N(CCC#N)CCCN(C(=O)N(C)C)c1ccccc1	> 100 µM (inactive)	> 100 µM (inactive)	> 100 µM (inactive)	> 100 µM (inactive)	> 100 µM (inactive)	> 100 µM (inactive)	> 100 µM (inactive)	> 100 µM (inactive)	> 100 µM (inactive)	> 100 µM (inactive)	> 100 µM (inactive)	> 100 µM (inactive)	> 100 µM (inactive)	> 100 µM (inactive)	> 100 µM (inactive)	> 100 µM (inactive)	> 100 µM (inactive)	> 100 µM (inactive)	> 100 µM (inactive)
CC(C)C[C@H](NC(=O)[C@H](Cc1cccc2ccccc12)NC(=O)N1CCOCC1)B(O)O	< 0.0126 µM (active)	< 0.01 µM (active)	0.0122 µM (active)	< 0.01 µM (active)	< 0.01 µM (active)	< 0.01 µM (active)	< 0.01 µM (active)	< 0.01 µM (active)	< 0.01 µM (active)	< 0.012 µM (active)	< 0.01 µM (active)	< 0.01 µM (active)	< 0.01 µM (active)	0.001 µM (active)	< 0.01 µM (active)	0.000776 µM (active)	< 0.01 µM (active)	< 0.01 µM (active)	< 0.01 µM (active)
